Measured values taken from patent publication US20110002953A1, “USE OF IMMIDAZOQUINOLINAMINES AS ADJUVANTS IN DNA VACCINATION” (priority 2000, published 2011).

Columns and labels:
[1] = system: IFN-γ-producing (Th1) cells; assay: IFN-γ ELISPOT on lymph node cells after pVAC1.OVA vaccination, adoptive transfer model; type: in vivo, Balb/c mice; conditions: for IFN-γ producing cells, in words: pVAC1.OVA + adjuvant versus plasmid without adjuvant
Description: (§1) Splenocytes were prepared as in example 1 above.
(§2) Th CD4+ subsets were assessed using the adoptive transfer model (example 2, above). IFN-γ-producing (Th1) and IL-4-producing (Th2) cells were assayed by ELISPOT (example 1, above). […] No cytokine producing cells were detected in empty vector immunised controls.
(§3) Cartridges were prepared using the pVAC1.OVA plasmid, immunisations and T cell responses were as described in example 2.

[2] = system: IL-4-producing (Th2) cells; assay: IL-4 ELISPOT on lymph node cells after pVAC1.OVA vaccination, adoptive transfer model; type: in vivo, Balb/c mice; conditions: for IL-4 producing cells, in words: pVAC1.OVA + adjuvant versus plasmid without adjuvant
Description: as §1, §2, §3

[3] = system: cytotoxic T cell response; assay: CD8+ T cell-restricted IFN-γ ELISPOT of splenocytes after particle mediated vaccination with pVAC1.PR (influenza nucleoprotein plasmid); type: in vivo, C57B1/6 mice
Description: The cytotoxic T cell response was assessed by CD8+ T cell-restricted IFN-γ ELISPOT assay of splenocytes collected one week later. Mice were killed by cervical dislocation and spleens were collected into ice-cold PBS. Splenocytes were teased out into phosphate buffered saline (PBS) followed by lysis of red blood cells (1 minute in buffer consisting of 155 mM NH4Cl, 10 mM KHCO3, 0.1 mM EDTA). After two washes in PBS to remove particulate matter the single cell suspension was aliquoted into ELISPOT plates previously coated with capture IFN-γ antibody and stimulated with CD8-restricted cognate peptide. After overnight culture, IFN-γ producing cells were visualised by application of anti-murine IFN-γ-biotin labelled antibody (Pharmingen) followed by streptavidin—conjugated alkaline phosphatase and quantitated using image analysis.

[4] = system: cytotoxic T cells (HIV antigens Gag and Nef); assay: IFN-γ ELISPOT of splenocytes with CD8-restricted Gag and Nef peptides after prime/boost vaccination with WRG7077.Gag/Nef; type: in vivo, Balb/c mice
Description: Here mice received a primary immunisation followed by a boost immunisation 42 days later.
IFN-γ ELISPOT assays were performed as described (example 1), using CD8-restricted cognate peptides for the Gag and Nef antigens to stimulate splenocytes collected 5 days after the boost immunisation.
Cartridges were prepared using the WRG7077Gag/Nef plasmid, PMID immunisations and T cell responses were as described in example 5. […] Spleens were collected for analysis 6 and 11 days after the boost immunisation.

EG7-OVA cells = assay: Tumour challenge with EG7-OVA cells after immunisation with pVAC1.OVA; type: in vivo, mice
[5] = imiquimod 100 mg/kg s.c. at boost only, splenocytes 5 days after boost, versus plasmid with vehicle

CC(C)(O)Cn1cnc2c(N)nc3ccccc3c21 [1-(2-hydroxy-2-methylpropyl)-1H-imidazo[4,5-c]quinolin-4-amine]
IFN-γ producing cells, in words [1]: increased | IL-4 producing cells, in words [2]: increased

Cc1nc2c(N)nc3ccccc3c2n1CC(C)(C)O [1-(2-hydroxy-2-methylpropyl)-2-methyl-1H-imidazo[4,5-c]quinolin-4-amine]
IFN-γ producing cells, in words [1]: increased | IL-4 producing cells, in words [2]: increased | increase in IL-4 producing CD4 T cells ([2]; single dose 30 mg/kg, 5 days after immunisation): Two

CCOCc1nc2c(N)nc3ccccc3c2n1CC(C)(C)O [Resiquimod, 1-(2-hydroxy-2-methylpropyl)-2-ethoxymethyl-1-H-imidazo[4,5-c]quinolin-4-amine]
increase of IFN-γ producing CD4 T cells ([1]; 1 mg/kg (apparently optimal dose), lymph node cells 5 days after immunisation): six | IFN-γ producing cells, in words [1]: increased | effect on IL-4 producing CD4 T cells ([2]; 1 mg/kg, lymph node cells 5 days after immunisation): only a modest effect | IL-4 producing cells, in words [2]: increased

CC(C)Cn1cnc2c(N)nc3ccccc3c21 [imiquimod, 1-(2-methylpropyl)-1H-imidazo[4,5-c]quinolin-4-amine]
cytotoxic T cells, control plasmid (pVAC1) + imiquimod versus vehicle ([3]; empty vector pVAC1, imiquimod 30 mg/kg s.c.): No difference | number of cytotoxic T cells in the spleens, pVAC1.PR + imiquimod versus pVAC1.PR + vehicle ([3]; imiquimod 30 mg/kg single s.c. injection at immunisation site, splenocytes one week later): 3 times | cytotoxic T-cell response following vaccination with pVAC1.PR (FIG. 1) ([3]; in words): increases | IFN-γ producing cells, in words [1]: increased | Th1/Th2 bias: increase of IFN-γ versus IL-4 producing cells ([1]; pVAC1.OVA + imiquimod, ELISPOT): more substantial for IFN-γ compared with IL-4 | IL-4 producing cells, in words [2]: increased | increase in cytotoxic T cells, imiquimod s.c. injection ([4]; 30 mg/kg s.c., 11 days after boost, versus plasmid with s.c. vehicle): approximately 2 fold | increase in cytotoxic T cells, imiquimod topically ([4]; 20 μl of 5% (w/v) cream (Aldara) at PMID site, 11 days after boost, versus plasmid with s.c. vehicle): approximately 2 fold | increase in cytotoxic T cells, Gag [4, 5]: 10 fold | increase in cytotoxic T cells, Nef [4, 5]: 100 fold | cytotoxic T-cell response following vaccination with WRG7077.Gag/Nef (FIG. 5) ([4]; in words): increases | cytotoxic T-cell response, topical application (FIG. 8) ([4]; in words): increases | growth of tumours (FIG. 9) (EG7-OVA cells; in words): delays | tumourigenicity of EG7.OVA tumour cells (FIG. 10) (EG7-OVA cells; in words): reduces | tumourigenicity (EG7-OVA cells; mice immunised with pVAC1.OVA + imiquimod 30 mg/kg s.c., 100,000 cells/mouse two weeks after boost): 25% | appearance of palpable tumours (EG7-OVA cells; pVAC1.OVA + imiquimod 30 mg/kg s.c. compared with pVAC1.OVA alone): most delayed
